Reference: patent US7589113B2, “Substituted oxadiazole compounds and their use as opioid receptor ligands” (Gruenenthal GmbH, priority 2005, dated 2009)

Tests used:
human μ opiate receptor = molecular target: T1, human μ opiate receptor (Homo sapiens, UniProt P35372); assay: Affinity for human μ opiate receptor ([3H]-naloxone displacement, SPA); assay type: binding; details: for inhibition at 1 µM / μ opioid receptor, % inhibition [1 μM]: 1 μM test substance, inhibition of specific [3H]-naloxone binding; for inhibition at 1 µM: read-out: μ opioid receptor, % inhibition [1 μM]; for Ki: Cheng-Prusoff conversion from IC50, read-out: μ opioid receptor, Ki
T1 construct: purchased PerkinElmer Life Sciences, Zaventem, Belgium RB-HOM; host or cells: CHO-K1 cells (membrane preparation)
T1 sequence (P35372 whole entry): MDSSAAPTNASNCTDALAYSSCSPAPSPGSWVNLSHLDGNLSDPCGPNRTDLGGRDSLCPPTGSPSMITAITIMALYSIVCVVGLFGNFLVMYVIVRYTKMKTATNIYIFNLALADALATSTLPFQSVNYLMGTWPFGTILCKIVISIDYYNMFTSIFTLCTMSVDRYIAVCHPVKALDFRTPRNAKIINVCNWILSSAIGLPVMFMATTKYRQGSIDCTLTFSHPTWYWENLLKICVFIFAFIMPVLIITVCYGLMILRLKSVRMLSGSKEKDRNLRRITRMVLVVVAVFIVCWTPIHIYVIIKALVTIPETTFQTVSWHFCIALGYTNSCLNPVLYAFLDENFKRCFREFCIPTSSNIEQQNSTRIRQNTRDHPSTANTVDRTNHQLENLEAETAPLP
Method: Method for Determining Affinity for Human μ Opiate Receptor
Receptor affinity for the human μ opiate receptor is determined in a homogeneous batch in microtitre plates. To this end, dilution series of the substances to be tested are incubated in a total volume of 250 μl for 90 minutes at room temperature with a receptor membrane preparation (15-40 μg protein/250 μl incubation batch) of CHO-K1 cells which express the human μ-opiate receptor (RB-HOM receptor membrane preparation from PerkinElmer Life Sciences, Zaventem, Belgium) in the presence of 1 nmol/l of the radioactive ligand [^3H]-naloxone (NET719, from PerkinElmer Life Sciences, Zaventem, Belgium) and 1 mg of WGA-SPA beads (wheat germ agglutinin SPA beads from Amersham/Pharmacia, Freiburg, Germany). 50 mmol/l of tris HCl supplemented with 0.06% bovine serum albumin is used as the incubation buffer. Nonspecific binding is determined by additionally adding 100 μmol/l of naloxone. Once the ninety minute incubation time has elapsed, the microtitre plates are centrifuged off for 20 minutes at 1000 g and the radioactivity measured in a β counter (Microbeta-Trilux, from PerkinElmer Wallac, Freiburg, Germany). The percentage displacement of the radioactive ligand from its binding to the human μ opiate receptor is determined at a concentration of the test substances of 1 μmol/l and stated as percentage inhibition of specific binding. On the basis of the percentage displacement brought about by different concentrations of the test substances, IC50 inhibition concentrations which result in a 50% displacement of the radioactive ligand are calculated. Ki values for the test substances are obtained by conversion using the Cheng-Prusoff equation.

Serotonin reuptake = molecular target: T2, Serotonin reuptake (Rattus norvegicus, UniProt P31652); assay: Serotonin (5HT) reuptake inhibition in rat brain synaptosomes; assay type: biochemical
T2 construct: synaptosomes are freshly isolated from rat brain regions; from tissue; host or cells: rat brain synaptosomes (P2 fraction)
T2 sequence (P31652 whole entry): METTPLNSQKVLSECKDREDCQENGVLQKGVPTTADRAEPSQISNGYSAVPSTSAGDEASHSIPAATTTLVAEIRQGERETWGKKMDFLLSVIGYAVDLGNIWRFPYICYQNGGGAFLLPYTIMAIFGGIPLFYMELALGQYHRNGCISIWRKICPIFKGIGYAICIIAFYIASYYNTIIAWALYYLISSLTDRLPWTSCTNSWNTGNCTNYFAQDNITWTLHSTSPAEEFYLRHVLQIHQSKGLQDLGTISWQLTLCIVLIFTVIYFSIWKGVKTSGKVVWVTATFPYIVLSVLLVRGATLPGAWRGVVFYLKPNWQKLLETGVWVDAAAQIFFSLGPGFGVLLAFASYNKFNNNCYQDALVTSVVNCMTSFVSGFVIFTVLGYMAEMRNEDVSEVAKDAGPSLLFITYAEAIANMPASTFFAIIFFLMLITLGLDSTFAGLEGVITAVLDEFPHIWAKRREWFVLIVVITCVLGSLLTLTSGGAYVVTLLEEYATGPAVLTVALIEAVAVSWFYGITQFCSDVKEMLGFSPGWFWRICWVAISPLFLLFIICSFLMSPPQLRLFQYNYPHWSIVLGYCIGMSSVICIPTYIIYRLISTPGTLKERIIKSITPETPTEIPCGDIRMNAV
Method: (§1) Noradrenalin (NA) and Serotonin (5HT) Reuptake Inhibition
(§2) In order to be able to carry out these in vitro studies, synaptosomes are freshly isolated from rat brain regions. A “P2” fraction is used, which is prepared according to the instructions given by Gray and Whittaker (E. G. Gray and V. P. Whittaker (1962) J. Anat. 76, 79-88). For NA uptake, these vesicular particles are isolated from the hypothalamus of male rat brains.
(§3) A detailed description of the method may be found in the literature (M. Ch. Frink, H.-H. Hennies, W. Engiberger, M. Haurand and B. Wilffert (1996) Arzneim.-Forsch./Drug Res. 46 (III), 11, 1029-1036).

Noradrenalin reuptake = molecular target: T3, Noradrenalin reuptake (Rattus norvegicus, UniProt Q63380); assay: Noradrenalin (NA) reuptake inhibition in rat hypothalamus synaptosomes; assay type: biochemical
T3 construct: these vesicular particles are isolated from the hypothalamus of male rat brains; from tissue; host or cells: hypothalamus of male rat brains, synaptosomes (P2 fraction)
T3 sequence (Q63380 1-617): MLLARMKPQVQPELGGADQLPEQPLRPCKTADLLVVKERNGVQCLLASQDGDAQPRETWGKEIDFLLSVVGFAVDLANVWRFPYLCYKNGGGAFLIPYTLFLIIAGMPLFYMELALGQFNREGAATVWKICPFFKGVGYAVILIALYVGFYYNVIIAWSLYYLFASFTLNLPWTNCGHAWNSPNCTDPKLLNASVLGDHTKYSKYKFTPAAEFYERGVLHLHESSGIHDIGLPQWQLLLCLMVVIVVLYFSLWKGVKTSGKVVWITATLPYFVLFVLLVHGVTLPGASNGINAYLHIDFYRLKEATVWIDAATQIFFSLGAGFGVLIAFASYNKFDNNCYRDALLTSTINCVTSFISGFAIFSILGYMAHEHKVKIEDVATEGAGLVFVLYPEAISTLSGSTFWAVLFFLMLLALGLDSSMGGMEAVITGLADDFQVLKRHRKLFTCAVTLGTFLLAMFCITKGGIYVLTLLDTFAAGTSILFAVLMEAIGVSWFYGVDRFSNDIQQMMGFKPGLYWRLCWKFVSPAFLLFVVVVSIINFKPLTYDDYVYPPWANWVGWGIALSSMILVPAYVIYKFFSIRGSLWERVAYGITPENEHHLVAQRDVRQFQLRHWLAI
Method: as §1, §2, §3

SMILES | inhibition at 1 µM (human μ opiate receptor) [%] | other results
Cc1cccc(-c2noc(C=CC3CCC(C(c4cccs4)N(C)C)CC3)n2)c1 (stereo not drawn) [Example 195, dimethyl-(thiophen-2-yl-{4-[2-(3-m-tolyl-[1,2,4]oxadiazol-5-yl)-vinyl]-cyclohexyl}-methyl)-amine] | 48 | –
CN(C)C(c1ccccc1)C1CCC(CCc2nc(-c3ccc(F)cc3F)no2)CC1 (stereo not drawn) [Example 281, [(4-{2-[3-(2,4-difluorophenyl)-[1,2,4]oxadiazol-5-yl]-ethyl}-cyclohexyl)-phenylmethyl]-dimethylamine] | 69 | –
COc1ccc(Cc2noc(CC3CCC(C(c4ccccc4)N(C)C)CC3)n2)cc1 (stereo not drawn) [Example 44, (4-((3-(4-methoxybenzyl)-1,2,4-oxadiazol-5-yl)methyl)cyclohexyl)-N,N-dimethyl(phenyl)methanamine] | – | μ opioid receptor, % inhibition [1 μM] (human μ opiate receptor): 75%; Ki (human μ opiate receptor): 72 nM; inhibition at 10 µM (Serotonin reuptake): 99%; inhibition at 10 µM (Noradrenalin reuptake): 100%
Cc1ccc(-c2noc(C=CC3CCC(C(c4cccs4)N(C)C)CC3)n2)n1C (stereo not drawn) [Example 224, [(4-{2-[3-(1,5-dimethyl-1H-pyrrol-2-yl)-[1,2,4]oxadiazol-5-yl]-vinyl}-cyclohexyl)-thiophen-2-yl-methyl]-dimethylamine] | 54 | –
CN(C)C(c1cccs1)C1CCC(C=Cc2nc(Cc3ccc(Cl)cc3)no2)CC1 (stereo not drawn) [Example 155, [(4-{2-[3-(4-chlorobenzyl)-[1,2,4]oxadiazol-5-yl]-vinyl}-cyclohexyl)-thiophen-2-yl-methyl]-dimethylamine] | 52 | –
CN(C)C(c1ccccc1)C1CCC(CCc2nc(-c3cccc(Cl)c3Cl)no2)CC1 (stereo not drawn) [Example 304, [(4-{2-[3-(2,3-dichlorophenyl)-[1,2,4]oxadiazol-5-yl]-ethyl}-cyclohexyl)-phenylmethyl]-dimethylamine] | 51 | –
CN(C)C(c1ccccc1)C1CCC(=Cc2nc(-c3ccccc3)no2)CC1 (stereo not drawn) [Example 69, dimethyl-{phenyl-[4-(3-phenyl-[1,2,4]oxadiazol-5-ylmethylene)-cyclohexyl]-methyl}-amine] | 40 | –
CN(C)C(c1ccccc1)C1CCC(C=Cc2nc(Cc3ccc(Cl)cc3)no2)CC1 (stereo not drawn) [Example 149, [(4-{2-[3-(4-chlorobenzyl)-[1,2,4]oxadiazol-5-yl]-vinyl}-cyclohexyl)-phenylmethyl]-dimethylamine] | 42 | –
CN(C)C(c1cccc(F)c1)C1CCC(Cc2nc(-c3ccccc3)no2)CC1 (stereo not drawn) [Example 232, {(3-fluorophenyl)-[4-(3-phenyl-[1,2,4]oxadiazol-5-ylmethyl)-cyclohexyl]-methyl}-dimethylamine] | 41 | –
Cc1cccc(-c2noc(C=C3CCC(C(c4ccccc4)N(C)C)CC3)n2)c1 (stereo not drawn) [Example 135, dimethyl-{phenyl-[4-(3-m-tolyl-[1,2,4]oxadiazol-5-ylmethylene)-cyclohexyl]-methyl}-amine] | 44 | –
CN(C)C(c1ccccc1)C1CCC(Cc2nc(-c3cccc(Cl)c3)no2)CC1 (stereo not drawn) [Example 243, ({4-[3-(3-chlorophenyl)-[1,2,4]oxadiazol-5-ylmethyl]-cyclohexyl}-phenylmethyl)-dimethylamine] | 55 | Ki (human μ opiate receptor): 320 nM
CN(C)C(c1ccccc1)C1CCC(Cc2nc(-c3cccc(Cl)c3Cl)no2)CC1 (stereo not drawn) [Example 246, ({4-[3-(2,3-dichlorophenyl)-[1,2,4]oxadiazol-5-ylmethyl]-cyclohexyl}-phenylmethyl)-dimethylamine] | 56 | –
COc1ccc(Cc2noc(C=C3CCC(C(c4ccccc4)N(C)C)CC3)n2)cc1 (stereo not drawn) [Example 79, ({4-[3-(4-methoxybenzyl)-[1,2,4]oxadiazol-5-ylmethylene]-cyclohexyl}-phenylmethyl)-dimethylamine] | 43 | –
Cc1cccc(-c2noc(CCC3CCC(C(c4ccccc4)N(C)C)CC3)n2)c1 (stereo not drawn) [Example 296, dimethyl-(phenyl-{4-[2-(3-m-tolyl-[1,2,4]oxadiazol-5-yl)-ethyl]-cyclohexyl}-methyl)-amine] | 45 | –
COc1ccc(Cc2noc(CCC3CCC(C(c4ccccc4)N(C)C)CC3)n2)cc1 (stereo not drawn) [Example 269, [(4-{2-[3-(4-methoxybenzyl)-[1,2,4]oxadiazol-5-yl]-ethyl}-cyclohexyl)-phenylmethyl]-dimethylamine] | 43 | –
CN(C)C(c1ccccc1)C1CCC(Cc2nc(Cc3ccc(Cl)cc3)no2)CC1 (stereo not drawn) [Example 43, (4-((3-(4-chlorobenzyl)-1,2,4-oxadiazol-5-yl)methyl)cyclohexyl)-N,N-dimethyl(phenyl)methanamine] | 83 | Ki (human μ opiate receptor): 44 nM; inhibition at 10 µM (Serotonin reuptake): 95%; inhibition at 10 µM (Noradrenalin reuptake): 95%
CN(C)C(c1ccccc1)C1CCC(Cc2nc(-c3ccccc3)no2)CC1 (stereo not drawn) [Example 234, dimethyl-{phenyl-[4-(3-phenyl-[1,2,4]oxadiazol-5-ylmethyl)-cyclohexyl]-methyl}-amine] | 64 | –
Cc1cccc(-c2noc(C=CC3CCC(C(c4ccccc4)N(C)C)CC3)n2)c1 (stereo not drawn) [Example 183, dimethyl-(phenyl-{4-[2-(3-m-tolyl-[1,2,4]oxadiazol-5-yl)-vinyl]-cyclohexyl}-methyl)-amine] | 40 | –
CN(C)C(c1ccc(F)cc1)C1CCC(=Cc2nc(-c3cccc(Cl)c3Cl)no2)CC1 (stereo not drawn) [Example 55, [{4-[3-(2,3-dichlorophenyl)-[1,2,4]oxadiazol-5-ylmethylene]-cyclohexyl}-(4-fluorophenyl)-methyl]-dimethylamine] | 53 | –
CN(C)C(c1ccccc1)C1CCC(CCc2nc(Cc3ccc(Cl)cc3)no2)CC1 (stereo not drawn) [Example 273, [(4-{2-[3-(4-chlorobenzyl)-[1,2,4]oxadiazol-5-yl]-ethyl}-cyclohexyl)-phenylmethyl]-dimethylamine] | 68 | –
Cc1cccc(-c2noc(CC3CCC(C(c4ccccc4)N(C)C)CC3)n2)c1 (stereo not drawn) [Example 258, dimethyl-{phenyl-[4-(3-m-tolyl-[1,2,4]oxadiazol-5-ylmethyl)-cyclohexyl]-methyl}-amine] | 53 | –
COc1ccc(Cc2noc(CC3CCC(C(c4ccccc4)N(C)C)CC3)n2)cc1 (stereo not drawn) [Example 239, ({4-[3-(4-methoxybenzyl)-[1,2,4]oxadiazol-5-ylmethyl]-cyclohexyl}-phenylmethyl)-dimethylamine] | 66 | –
CN(C)C(c1ccccc1)C1CCC(C=Cc2nc(Cc3ccc(Cl)cc3)no2)CC1 (stereo not drawn) [Example 150, [(4-{2-[3-(4-chlorobenzyl)-[1,2,4]oxadiazol-5-yl]-vinyl}-cyclohexyl)-phenylmethyl]-dimethylamine] | – | μ opioid receptor, % inhibition [1 μM] (human μ opiate receptor): 56%
